Experimental data as given in patent US20260103760A1, “ANALYTIC METHOD FOR DIAGNOSING OVARIAN CANCER RESISTANT TO PACLITAXEL” (CHA UNIVERSITY INDUSTRY-ACADEMIC COOPERATION FOUNDATION, priority 2022, published 2026).

Tested on: Taxol-resistant ovarian cancer cell line SKOV3/TAX compared to ovarian cancer cell line SKOV3
Assay: Cell viability of SKOV3 and SKOV3/TAX cultured in medium containing Taxol (cell counting kit-8)
Type: cell-based
Conditions: medium containing 30 μM Taxol, FIG. 1
Protocol: Ovarian cancer cell line SKOV3 (HTB-77™, Sigma-Aldrich, St. Louis, MO, USA) was cultured in a DMEM medium (31800-022, Gibco, Grand Island, NY, USA) containing 5 μM Taxol, 10% FBS and 1% Antibiotic-Antimycotic (15240062, Gibco, Grand Island, NY, USA) at 37° C. in a 5% CO2 incubator for 1 month. The cells were harvested and cultured continuously in a 5% CO2 incubator at 37° C., in a medium containing 10 µM Taxol for 2 months, in a medium containing 20 µM Taxol for 2 months, and in a medium containing 30 μM Taxol for 2 months (total for 7 months), and then the viable cell line was isolated. The isolated cell line was named SKOV3/TAX and the following experiments were performed using as an ovarian cancer cell line resistant to Taxol. In order to compare Taxol resistance, the SKOV3 and SKOV3/TAX cells were cultured at 5,000 cells per well in a 96-well plate in a medium containing Taxol at a concentration of 30 μM per well. Then, cell viabilities were measured at 0, 24, and 48 hours with a cell counting kit-8 (CK04-11, Dojindo, Rockville, MD, USA).

CC(=O)O[C@H]1C(=O)[C@@]2(C)[C@H]([C@H](OC(=O)c3ccccc3)[C@]3(O)C[C@H](OC(=O)[C@H](O)[C@@H](NC(=O)c4ccccc4)c4ccccc4)C(C)=C1C3(C)C)[C@]1(OC(C)=O)CO[C@@H]1C[C@@H]2O [Taxol, paclitaxel] was tested, and the “cell viability of SKOV3/TAX compared to SKOV3 (increase)” value (24 hours, 5,000 cells per well) was “approximately 1.67 fold” and the “cell viability of SKOV3/TAX compared to SKOV3 (increase)” value (48 hours, 5,000 cells per well) was “approximately 2.40 fold”.
